Six compounds from patent US20250281610A1, “P2RY2 ACTIVITY MODULATORS” (Deutsches Krebsforschungszentrum Stiftung des öffentlichen …, priority 2022, published 2025) can be followed below.

For data set [1], the system named is CEA-specific CAR transduced T cells co-cultured with SW480 cells. Description: T cell activation in co-culture of CEA-specific CAR-T cells with SW480 cells. The class given is cell-based, human. The note with it: 40 μM ATP, 200 μM ATPγS, 10 μM Diquafosol, 5 μM Denufosol, 24 hours (FIG. 19). Here is the method: FIG. 19. Effects of P2RY2 agonist and P2RY2 antagonist on T cell activity in T cell-cancer cell co-cultures. T cells transduced with a CEA-specific CAR (CAR-T) were co-cultured with genetically edited SW480 cells for 24 hours in the absence or presence of 40 μM ATP, 200 μM ATPγS, 10 μM Diquafosol, 5 μM Denufosol and 10 μM AR-C 118925XX (AR-C). Control cells: SW480 cells transduced with non-targeting sgRNA and Cas9 (gNT); P2RY2 deficient cells: SW480 cells transduced with P2RY2-targeting sgRNA and Cas9 (gP2RY2-3, gP2RY2-4); B7-H3 (CD276) deficient cells: SW480 cells transduced with B7-H3-targeting sgRNA and Cas9 (gCD276-1); P2RY2 and B7-H3 double deficient cells: SW480 cells transduced with P2RY2-targeting sgRNA, B7-H3-targeting sgRNA, and Cas9 (gCD276-1 gP2RY2-3 DKO, gCD276-1 gP2RY2-4 DKO); P2RY2 overexpression cells: SW480 cells transduced with the open reading frame of P2RY2 (P2RY2-OE); B7-H3 overexpression cells: SW480 cells transduced with the open reading frame of CD276 (CD276-OE). Transduced cancer cells were selected by antibiotics according to antibiotic resistance genes carried by the lentiviral constructs. Flow cytometry analysis of expression of CD25 and CD69 and production of IFNγ within the CD3+CD8+ or CD3+CD4+ cell population is shown (values indicate the percentages of positive cells).
MART-1 specific T cells were generated as described (Mezzadra et al., Nature 549, 106-110 (2017); Jorritsma et al., Blood 110 (10): 3564-3572. (2007)). To generate CD33-specific chimeric antigen receptor (CAR) T cells and CEA-specific CAR-T cells, a CD33Hul95-CD28Z CAR (described in WO 2019/178382) cassette and MFE-23 (described in US20050147614A1)-CD28Z CAR were separately cloned into retroviral vectors, and the resulting virus was used to transduce T cells as described (Mezzadra et al., Nature 549, 106-110 (2017); Jorritsma et al., Blood 110 (10): 3564-3572. (2007)).
The open reading frames of transcripts of P2RY2 (ENST00000393597.7) or CD276 (ENST00000318443.10), were ordered as a codon optimized gBlock Gene Fragment (Integrated DNA Technologies or Twist Bioscience) and cloned into a lentiviral vector containing a blasticidin selection cassette. Constructs were verified by Sanger sequencing.
(§1) MART1-specific CD8+ T cells and MART1 epitope-expressing cancer cells were mixed at a ratio of 1:16 to 1:1. CD33 CAR-T cells and CD33 expressing THP-1 cells were mixed at a ratio of 1:16 to 1:4. CEA CAR-T cells and CEA expressing SW480 cells were mixed at a ratio of 1:1. Next, cells were centrifugated at 1,600 g for 3 min and incubated at 37° C. and 5% CO2 for 12-72 hours. T cell activation was assessed by surface staining with anti-CD137-BV421 (4-1BB, Biolegend), anti-CD137-PE/Cy7 (4-1BB, Biolegend), anti-CD69-APC/Fire™ 750 (FN50, Biolegend), anti-CD25-AF700 (BC96, Biolegend), anti-CD25-APC (BC96, Biolegend) antibodies and intracellular staining with anti-IL-2-PE/Cy7 (MQ1-17H12, Biolegend), anti-IFN-7-BV421 (4S.B3, Biolegend), anti-TNF-α-BV785 (MAb11, Biolegend), anti-TNF-α-APC (MAb11, Biolegend) antibodies, followed by flow cytometry analysis. For intracellular staining, brefeldin A (Biolegend) was added to the cell culture medium 4 h before cells were harvested. The viability of cancer cells that grow in suspension including THP-1 cells was assessed by flow cytometry-based absolute cell counting using AccuCount beads (Spherotech). For adherent cancer cells including BxPC3, MIA PaCa-2, MDA-MB-231 and MCF7, the cell viability was quantified using CellTiter-Blue Cell Viability Assay (Promega).

For the next data set, the system named is B7-H3. Nature of the data set: Flow cytometry analysis of B7-H3 expression after ATP or UTP stimulation. It is filed as cell-based, human. The note with it: for B7-H3 expression: P2RY2 proficient cells (THP-1, FIG. 3) stimulated with ATP or UTP for 24 hours. An excerpt: FIG. 2. Flow cytometry analysis of B7-H3 expression in wildtype (WT) and P2RY2-deficient bulk THP-1, U937, KBM7, and K562 cells (P2RY2-3 KO and P2RY2-4 KO) in the absence or presence of ATP. Values indicate MFI relative to untreated WT cells.
FIG. 3. Flow cytometry analysis of B7-H3 expression in THP-1 cells in the absence or presence of ATP. Values indicate MFI relative to untreated cells.
THP-1 cells, U937 cells, K562 cells, and KBM7 cells were transduced with a lentiviral vector encoding Cas9 along with a Blasticidin S resistance cassette ([…] deaminase). One day after the transduction, cells were selected with 50 microgram/milliliter Blasticidin S Hydrochloride for […]. Next, surviving cells were transduced with one of the lentiviral vectors encoding sgRNA targeting the sequences 5′-[…]-3′ (SEQ ID NO:6) and 5′-[…]-3′ (SEQ ID NO:7) on the coding strand of P2RY2 gene, along with a puromycin resistance cassette (puromycin N-acetyltransferase). One day after the transduction, cells were selected with 2 microgram/milliliter Puromycin dihydrochloride for 48-96 hours. Selected cells were expanded, subjected to genomic DNA isolation, and analyzed for deleterious editing of the P2RY2 locus by PCR (using primers 5′-[…]-3′ (SEQ ID NO:8) and 5′-[…]-3′ (SEQ ID NO:9)) and Sanger sequencing of the PCR products using primer 5′-[…]-3′ (SEQ ID NO:8) for the sgRNA(5′-[…]-3′, SEQ ID NO:6)) transduced cell and 5′-[…]-3′ (SEQ ID NO:9) for the sgRNA(5′-[…]-3′, SEQ ID NO:7) transduced cell.
The polyclonal cells transduced with Cas9 and sgRNA targeting P2RY2, and wildtype cells were cultured in the absence or presence of ATP or UTP (ligands of P2RY2, Sigma) for 24 hours, stained with anti-B7-H3 antibody and analyzed by flow cytometry.

The next data set has as its system THP-1 cells. Nature of the data set: Viability of THP-1 cells in co-culture with CD33-specific CAR-T cells (flow cytometry-based cell counting). Also on record: species or system human. Particulars: 100 uM Diquafosol, 24 hours, co-culture with CD33-specific CAR-T cells (FIG. 9). Here is the method: FIG. 8. Effects of P2RY2 antagonist on T cells and cancer cells in T cell-cancer cell co-cultures. T cells transduced with CD33-specific CAR (CAR-T) were co-cultured with genetically edited THP-1 cells in the absence or presence of 5 μM AR-C 118925XX (AR-C) for 6-24 hours. Control cells: THP-1 cells transduced with non-targeting sgRNA and Cas9 (gNT); P2RY2 deficient cells: THP-1 cells transduced with P2RY2-targeting sgRNA and Cas9 (gP2RY2-3, gP2RY2-4); B7-H3 (CD276) deficient cells: THP-1 cells transduced with B7-H3-targeting sgRNA and Cas9 (gCD276-1); P2RY2 and B7-H3 double deficient cells: THP-1 cells transduced with P2RY2-targeting sgRNA, B7-H3-targeting sgRNA, and Cas9 (gCD276-1 gP2RY2-3 DKO, gCD276-1 gP2RY2-4 DKO); P2RY2 overexpression cells: THP-1 cells transduced with the open reading frame of P2RY2 (P2RY2-OE); B7-H3 overexpression cells: THP-1 cells transduced with the open reading frame of CD276 (CD276-OE). […]
FIG. 9. […] Control cells THP-1 cells transduced with non-targeting sgRNA and Cas9 (Ctrl.); P2RY2 overexpression cells: THP-1 cells transduced with the open reading frame of P2RY2 (P2RY2-OE). […]
The open reading frames of transcripts of P2RY2(ENST00000393597.7) or CD276(ENST00000318443.10), were ordered as a codon optimized gBlock Gene Fragment (Integrated DNA Technologies or Twist Bioscience) and cloned into a lentiviral vector containing a blasticidin selection cassette. […]
MART1-specific CD8+ T cells and MART1 epitope-expressing cancer cells were mixed at a ratio of 1:16 to 1:4. […] T cell activation was assessed by surface staining with anti-CD137-BV421 (4-1BB, Biolegend), anti-CD69-APC/Fire™ 750 (FN50, Biolegend), anti-CD25-AF700 (BC96, Biolegend) antibodies and intracellular staining with anti-IL-2-PE/Cy7 (MQ1-17H12, Biolegend), anti-IFN-7-BV421 (4S.B3, Biolegend), anti-TNF-α-BV785 (MAb11, Biolegend) antibodies, followed by flow cytometry analysis. […] The viability of cancer cells that grow in suspension including THP-1 cells was assessed by flow cytometry-based absolute cell counting using AccuCount beads (Spherotech). […]

Another data set deals with BxPC3 cells. Nature of the data set: Viability of BxPC3 cells in co-culture with MART-1-specific TCR-T cells (CellTiter-Blue). It is filed as cell-based, human. Particulars: single agent: 5 μM AR-C, 10 μg/ml atezolizumab or 10 μg/ml durvalumab, 6-24 hours (FIG. 11).
Excerpt: FIG. 11. […] Untreated cells served as the control.
MART-1 specific T cells were generated as described (Mezzadra et al., Nature 549, 106-110 (2017); Jorritsma et al., Blood 110 (10): 3564-3572. (2007)). To generate CD33-specific chimeric antigen receptor (CAR) T cells, a CD33Hul95-CD28Z CAR (described in WO 2019/178382) cassette was cloned into a retroviral vector, and the resulting virus was used to transduce T cells as described (Mezzadra et al., Nature 549, 106-110 (2017); Jorritsma et al., Blood 110 (10): 3564-3572. (2007)).
as §1, with “to” for “to 1:1. CD33 CAR-T cells and CD33 expressing THP-1 cells were mixed at a ratio of 1:16 to”, “1:4.” for “1:4. CEA CAR-T cells and CEA expressing SW480 cells were mixed at a ratio of 1:1.”, “Biolegend),” for “Biolegend), anti-CD137-PE/Cy7 (4-1BB, Biolegend),”, “anti-CD25-AF700” for “anti-CD25-AF700 (BC96, Biolegend), anti-CD25-APC”, “anti-TNF-α-BV785” for “anti-TNF-α-BV785 (MAb11, Biolegend), anti-TNF-α-APC”, “BxPC3” for “BxPC3, MIA PaCa-2, MDA-MB-231”

For `Nc1ncnc2c1ncn2[C@@H]1O[C@H](COP(=O)(O)OP(=O)(O)OP(=O)(O)O)[C@@H](O)[C@H]1O` [ATP], the T cell activation entry in data set [1] was “repressed”. The “ATP-induced B7-H3 surface expression upon P2RY2 disruption” value in the data set on B7-H3 (P2RY2-deficient THP-1, U937, KBM7, K562 cells, presence of ATP (FIG. 2)) was “abrogated”. For the same compound, the B7-H3 expression result in the data set with B7-H3 was “increased B7-H3 expression in a dose-dependent manner”.

With `Nc1ncnc2c1ncn2[C@@H]1O[C@H](COP(=O)(O)OP(=O)(O)OP(O)(O)=S)[C@@H](O)[C@H]1O` [Adenosine-5′-(γ-thio)-triphosphate], the T cell activation result in data set [1] is “repressed”.

`Nc1ccn([C@H]2C[C@H](O)[C@@H](COP(=O)(O)OP(=O)(O)OP(=O)(O)OP(=O)(O)OC[C@H]3O[C@@H](n4ccc(=O)[nH]c4=O)[C@H](O)[C@@H]3O)O2)c(=O)n1` [Denufosol]: the T cell activation result in data set [1] is “repressed”.

For `O=c1ccn([C@@H]2O[C@H](COP(=O)(O)OP(=O)(O)OP(=O)(O)OP(=O)(O)OC[C@H]3O[C@@H](n4ccc(=O)[nH]c4=O)[C@H](O)[C@@H]3O)[C@@H](O)[C@H]2O)c(=O)[nH]1` [Diquafosol], the “T cell-mediated cytotoxicity in THP-1 cells” value in the data set with THP-1 cells was “confers resistance”. The T cell activation result in data set [1] was “repressed”.

`O=c1ccn([C@@H]2O[C@H](COP(=O)(O)OP(=O)(O)OP(=O)(O)O)[C@@H](O)[C@H]2O)c(=O)[nH]1` [UTP]: in the data set on B7-H3, the B7-H3 expression result is on record as “increased B7-H3 expression in a dose-dependent manner”.

Turning to “atezolizumab: Blocking antibody of the PD-L1-PD-1 immune checkpoint”, the “viability of BxPC3 cells” value with BxPC3 cells is given as “reduced”.
